Measured values taken from ChEMBL document CHEMBL1201862, “PubChem BioAssay data set” (2004).
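In this assay, cells in 96-well plates receive the compound at five concentrations for 48 hours. Endpoints are linearly interpolated between the surrounding concentrations. The concentration for 50% growth inhibition is given as GI50.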 Active and inactive are the calls of the source. Rule as the data show it: active = GI50 up to about 1.1 µM and inactive = higher.

How the values were obtained:
Test in all cases: inhibition of tumour cell growth, NCI panel, 48 h
[1] = system: SK-MEL-5
[2] = system: A549
[3] = system: SNB-19
[4] = system: SF-295
[5] = system: MDA-MB-231
[6] = system: HOP-62
[7] = system: IGROV-1
[8] = system: MCF7
[9] = system: TK-10
[10] = system: K562
[11] = system: HCT-15
[12] = system: SF-268
[13] = system: RPMI-8226
[14] = system: HT-29
[15] = system: ACHN
[16] = system: SW-620
[17] = system: HCC 2998
[18] = system: NCI/ADR-RES

Structure (SMILES)	GI50 [1]	GI50 [2]	GI50 [3]	GI50 [4]	GI50 [5]	GI50 [6]	GI50 [7]	GI50 [8]	GI50 [9]	GI50 [10]	GI50 [11] [µM]	GI50 [12]	GI50 [13]	GI50 [14]	GI50 [15]	GI50 [16]	GI50 [17]	GI50 [18]
O=C(O)c1nn(-c2ccc(Cl)cc2)c2c1C(=O)c1ccccc1C2=O	20.5 µM (inactive)	> 100 µM (inactive)	> 100 µM (inactive)	> 100 µM (inactive)	41.3 µM (inactive)	> 100 µM (inactive)	> 100 µM (inactive)	> 100 µM (inactive)	> 100 µM (inactive)	> 100 µM (inactive)	> 100	> 100 µM (inactive)	> 100 µM (inactive)	> 100 µM (inactive)	> 100 µM (inactive)	> 100 µM (inactive)	43.1 µM (inactive)	> 100 µM (inactive)
O=P(O)(CCP(=O)(O)c1ccccc1)c1ccccc1	> 100 µM (inactive)	> 100 µM (inactive)	> 100 µM (inactive)	> 100 µM (inactive)	> 100 µM (inactive)	> 100 µM (inactive)	> 100 µM (inactive)	> 100 µM (inactive)	> 100 µM (inactive)	> 100 µM (inactive)	> 100	> 100 µM (inactive)	> 100 µM (inactive)	> 100 µM (inactive)	> 100 µM (inactive)	> 100 µM (inactive)	> 100 µM (inactive)	> 100 µM (inactive)
CCOC(=O)c1c(SCCN2CCCCC2)n(-c2ccccc2)c(=S)n(-c2ccccc2)c1=O	15.6 µM (inactive)	> 54 µM (inactive)	> 78.3 µM (inactive)	> 100 µM (inactive)	21.2 µM (inactive)	14 µM (inactive)	> 10 µM (inactive)	5.85 µM (inactive)	18 µM (inactive)	3 µM (inactive)	4.29	28.6 µM (inactive)	2.74 µM (inactive)	15.3 µM (inactive)	17.7 µM (inactive)	3.79 µM (inactive)	> 38.9 µM (inactive)	21.2 µM (inactive)
CCCc1cn2c(/C=N/NC(=N)N)c(-c3ccc([N+](=O)[O-])cc3)nc2s1	5.81 µM (inactive)	1.71 µM (inactive)	1.71 µM (inactive)	0.912 µM (active)	1.69 µM (inactive)	1.77 µM (inactive)	1.77 µM (inactive)	1.75 µM (inactive)	1.81 µM (inactive)	0.286 µM (active)	1.36	2.16 µM (inactive)	0.45 µM (active)	0.275 µM (active)	1.67 µM (inactive)	0.342 µM (active)	0.578 µM (active)	1.89 µM (inactive)
CC(=O)SC(C[N+](=O)[O-])c1ccccc1 (centres undefined)	2.68 µM (inactive)	3.82 µM (inactive)	11.9 µM (inactive)	6.15 µM (inactive)	10.8 µM (inactive)	15.3 µM (inactive)	2.32 µM (inactive)	1.74 µM (inactive)	7.26 µM (inactive)	2.41 µM (inactive)	2.21	7.98 µM (inactive)	2.05 µM (inactive)	2.06 µM (inactive)	3.66 µM (inactive)	2.18 µM (inactive)	4.75 µM (inactive)	20.1 µM (inactive)
COc1ccc(-c2cc(-c3ccccc3)nc(/N=C\c3ccccc3)n2)c(O)c1	7.05 µM (inactive)	26.4 µM (inactive)	> 36.5 µM (inactive)	97.7 µM (inactive)	> 31.3 µM (inactive)	> 57.7 µM (inactive)	11.5 µM (inactive)	1.64 µM (inactive)	> 100 µM (inactive)	2.44 µM (inactive)	5.37	> 93.5 µM (inactive)	2.14 µM (inactive)	> 27.9 µM (inactive)	6.47 µM (inactive)	8 µM (inactive)	> 100 µM (inactive)	> 86.5 µM (inactive)
COC(=O)C(=O)C(C(=O)C(N)=O)c1nc2ccc(C(=O)c3ccccc3)cc2nc1O (centres undefined)	45.7 µM (inactive)	> 100 µM (inactive)	> 10 µM (inactive)	79.8 µM (inactive)	> 100 µM (inactive)	> 100 µM (inactive)	83.2 µM (inactive)	63.8 µM (inactive)	> 100 µM (inactive)	34.2 µM (inactive)	55.7	> 100 µM (inactive)	62.5 µM (inactive)	> 100 µM (inactive)	63 µM (inactive)	> 100 µM (inactive)	> 100 µM (inactive)	40.4 µM (inactive)
CNC(=O)NCCN1CC2CCC(CC2)C1	> 10 µM (inactive)	> 10 µM (inactive)	> 10 µM (inactive)	> 10 µM (inactive)	> 10 µM (inactive)	> 10 µM (inactive)	> 10 µM (inactive)	> 10 µM (inactive)	> 10 µM (inactive)	> 10 µM (inactive)	> 10	> 10 µM (inactive)	> 10 µM (inactive)	> 10 µM (inactive)	> 10 µM (inactive)	> 10 µM (inactive)	> 10 µM (inactive)	> 10 µM (inactive)
